Data published in PubChem BioAssay (NCI).
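Grown in 96-well plates, cells were treated for 48 hours with each compound at five concentrations. Insufficient inhibition: endpoint recorded as highest concentration tested. TGI marks complete inhibition of growth.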

Assays:
Assay in all cases: inhibition of tumour cell growth, NCI panel, 48 h
UACC-62 melanoma = test system: UACC-62 melanoma
MALME-3M melanoma = test system: MALME-3M melanoma
RXF 393 renal = test system: RXF 393 renal
SK-MEL-5 melanoma = test system: SK-MEL-5 melanoma
SK-MEL-2 melanoma = test system: SK-MEL-2 melanoma
OVCAR-3 ovarian = test system: OVCAR-3 ovarian
SNB-19 CNS = test system: SNB-19 CNS
M14 melanoma = test system: M14 melanoma
NCI-H226 lung = test system: NCI-H226 lung
NCI/ADR-RES ovarian = test system: NCI/ADR-RES ovarian

O=c1oc2ccccc2c(O)c1C(C/C(CCN1CCCC1)=N\Nc1ccccc1)c1ccccc1 (stereo not given)
TGI (UACC-62 melanoma): > 100 µM
TGI (MALME-3M melanoma): > 100 µM
TGI (RXF 393 renal): 93 µM
TGI (SK-MEL-5 melanoma): > 100 µM
TGI (SK-MEL-2 melanoma): > 100 µM
TGI (OVCAR-3 ovarian): > 100 µM
TGI (SNB-19 CNS): > 100 µM
TGI (M14 melanoma): > 100 µM
TGI (NCI-H226 lung): > 100 µM

Oc1ccc(Cl)cc1C1=NC(/N=C\c2ccccc2)=NC(c2ccccc2)C1 (stereo not given)
TGI (UACC-62 melanoma): > 100 µM
TGI (RXF 393 renal): > 100 µM
TGI (SK-MEL-5 melanoma): 61.2 µM
TGI (SK-MEL-2 melanoma): > 100 µM
TGI (NCI/ADR-RES ovarian): > 100 µM
TGI (OVCAR-3 ovarian): > 100 µM
TGI (M14 melanoma): > 100 µM
TGI (NCI-H226 lung): > 100 µM

COc1cc(Br)c(CC2C3=C(CCN2C(=O)C2CCC2)CC(=O)CC3)cc1O (stereo not given)
TGI (UACC-62 melanoma): 36.3 µM
TGI (MALME-3M melanoma): 92.7 µM
TGI (SK-MEL-5 melanoma): > 100 µM
TGI (SK-MEL-2 melanoma): > 100 µM
TGI (NCI/ADR-RES ovarian): > 100 µM
TGI (OVCAR-3 ovarian): 57 µM
TGI (SNB-19 CNS): > 100 µM
TGI (M14 melanoma): > 100 µM
TGI (NCI-H226 lung): > 100 µM

COc1ccc(Sc2ccccc2N)cc1
TGI (UACC-62 melanoma): > 100 µM
TGI (MALME-3M melanoma): > 100 µM
TGI (RXF 393 renal): 75.6 µM
TGI (SK-MEL-5 melanoma): 62.9 µM
TGI (SK-MEL-2 melanoma): > 100 µM
TGI (OVCAR-3 ovarian): > 100 µM
TGI (SNB-19 CNS): > 100 µM
TGI (M14 melanoma): > 100 µM
TGI (NCI-H226 lung): 89.4 µM

C=CCC(C(=O)Nc1cccc2[nH]cnc12)C(=O)OCC (stereo not given)
TGI (UACC-62 melanoma): > 100 µM
TGI (SK-MEL-2 melanoma): > 100 µM
TGI (NCI/ADR-RES ovarian): > 100 µM
TGI (OVCAR-3 ovarian): > 100 µM
TGI (SNB-19 CNS): > 100 µM
TGI (M14 melanoma): > 100 µM
TGI (NCI-H226 lung): > 100 µM

O=C1NCCS(=O)(=O)N2CCC[C@@H]12
TGI (UACC-62 melanoma): > 100 µM
TGI (MALME-3M melanoma): > 100 µM
TGI (RXF 393 renal): > 100 µM
TGI (SK-MEL-5 melanoma): > 100 µM
TGI (OVCAR-3 ovarian): > 100 µM
TGI (SNB-19 CNS): > 100 µM
TGI (M14 melanoma): > 100 µM
TGI (NCI-H226 lung): > 100 µM

Cc1ccc(CCC(=O)C(=O)O)s1
TGI (UACC-62 melanoma): 48.6 µM
TGI (MALME-3M melanoma): > 100 µM
TGI (SK-MEL-5 melanoma): > 100 µM
TGI (SK-MEL-2 melanoma): > 100 µM
TGI (OVCAR-3 ovarian): > 100 µM
TGI (SNB-19 CNS): > 100 µM
TGI (M14 melanoma): > 100 µM

COc1ccc2c(c1)OC[C@@H]1c3cc(O)c(OCc4ccccc4)cc3O[C@H]21
TGI (UACC-62 melanoma): > 100 µM
TGI (MALME-3M melanoma): 85.7 µM
TGI (RXF 393 renal): 93.2 µM
TGI (SK-MEL-5 melanoma): 26.5 µM
TGI (SK-MEL-2 melanoma): 60.8 µM
TGI (OVCAR-3 ovarian): > 100 µM
TGI (SNB-19 CNS): > 100 µM
TGI (M14 melanoma): 82.6 µM
TGI (NCI-H226 lung): 95.7 µM

Cc1ccc(-n2cc([Si](C)(C)C)nn2)s1
TGI (UACC-62 melanoma): > 100 µM
TGI (MALME-3M melanoma): > 100 µM
TGI (SK-MEL-5 melanoma): > 100 µM
TGI (SK-MEL-2 melanoma): > 100 µM
TGI (NCI/ADR-RES ovarian): > 100 µM
TGI (OVCAR-3 ovarian): > 100 µM
TGI (SNB-19 CNS): > 100 µM
TGI (M14 melanoma): > 100 µM
TGI (NCI-H226 lung): > 100 µM

CC1=NN(c2nc(N)nc(CF)n2)C(C)(C)C1
TGI (UACC-62 melanoma): > 100 µM
TGI (RXF 393 renal): > 100 µM
TGI (SK-MEL-5 melanoma): > 100 µM
TGI (SK-MEL-2 melanoma): > 100 µM
TGI (NCI/ADR-RES ovarian): > 100 µM
TGI (SNB-19 CNS): > 100 µM
TGI (M14 melanoma): > 100 µM
TGI (NCI-H226 lung): > 100 µM

NCCCNCCCCN1CC1
TGI (UACC-62 melanoma): 68.8 µM
TGI (RXF 393 renal): 7.83 µM
TGI (SK-MEL-5 melanoma): 11.7 µM
TGI (NCI/ADR-RES ovarian): > 20.7 µM
TGI (OVCAR-3 ovarian): 4.78 µM
TGI (SNB-19 CNS): > 23.8 µM
TGI (M14 melanoma): > 22.6 µM
TGI (NCI-H226 lung): > 20.9 µM

C=C(C)CNC(=S)N(N)c1ccc2ccccc2c1
TGI (UACC-62 melanoma): 76.8 µM
TGI (MALME-3M melanoma): > 100 µM
TGI (RXF 393 renal): > 100 µM
TGI (SK-MEL-5 melanoma): > 100 µM
TGI (NCI/ADR-RES ovarian): > 100 µM
TGI (OVCAR-3 ovarian): > 100 µM
TGI (SNB-19 CNS): > 100 µM
TGI (M14 melanoma): > 100 µM
TGI (NCI-H226 lung): > 100 µM
